{
  "source": "patent US3987175A",
  "about": "“Derivatives of phenoxy isobutyric acid having hypolipemizing and hypocholesterolemizing action” (Pierre Fabre S.A., priority 1974, dated 1976)",
  "key": {"[1]": {"assay": "Acute test: cholesterol and triglycerides 4 hours after intraperitoneal administration", "format": "in vivo", "conditions": "rats", "experimental": "The products to be studied were administered intraperitoneally to groups of identical rats; the doses were calculated on a basis of clofibrate in order to make the tests fully comparative. After a period of 4 hours, blood was removed by heart puncture and cholesterol and triglycerides determined."}, "[2]": {"assay": "Test covering 4 days of treatment by oral administration, normal diet (cholesterol, Kunkel's phenol test)", "format": "in vivo", "conditions": "rats, fifth day", "source_text": "2. Test covering 4 days of treatment by oral administration. In a lot of 30 rats subjected to a normal diet, the blood samplings were effected and the determinations of cholesterol and lipoproteins (Kunkel's phenol test) were made on the fifth day."}, "[3]": {"assay": "Hypercholesterolemia induced by the administration of Triton WR 1339", "format": "in vivo", "conditions": "male rats; for Cholesterol % variation / Kunkel phenol % variation: Triton 200 mg/kg IV, 18 hours", "experimental": "3. […] Immediately after the injection, the products to be tested were administered IP and new samples of blood taken 18 hours later (at the maximum of the hypocholesterolemia produced by the Triton). |P being the biochemical parameter under consideration | p Triton + product p Triton + product | - | + 18 hours at the start |1 - × 100 | p Triton p Triton | - | + 18 hours at the start"}, "[4]": {"assay": "Acute toxicity, LD50 (method of Miller and Tainter, mortality observed for 4 days)", "conditions": "mouse, in vivo, mice", "source_text": "The above-described chemical compounds were submitted to toxicity tests. The acute toxicity of certain compounds determined by the 50% lethal dose is entered in the following Table:\nThe LD50 was studied in accordance with the method of Miller and Tainter, the mortality of mice being observed for 4 days."}, "[5]": {"assay": "Solubility characteristics", "format": "physicochemical"}, "[6]": {"conditions": "IP, clofibrate 200 mg/kg, 4 hours"}, "[7]": {"conditions": "clofibrate 200 mg/kg IP, NS (not significant)"}, "[8]": {"conditions": "IP, F 1393 340 mg/kg, 4 hours (comparison with reference products)"}, "[9]": {"conditions": "acute dose study, 340 mg/kg, HS (highly significant)"}, "[10]": {"conditions": "IP, nicotinic acid 140 mg/kg, 4 hours"}, "[11]": {"conditions": "nicotinic acid 100 mg/kg IP, HS (highly significant)"}},
  "note": "Counter-ions that a name gives are not always drawn.",
  "data": [
    {"smiles": "CCOC(=O)C(C)(C)Oc1ccc(Cl)cc1", "note": "[Clofibrate]", "values": [
      {"measurement": "Cholesterol % variation referred to the control", "setting": "[1]; [6]", "value": -17, "unit": "%"},
      {"measurement": "Triglycerides % variation referred to the control", "setting": "[1]; [6]", "value": "+23%"},
      {"measurement": "Cholesterol % variation referred to the control", "setting": "[2]; clofibrate 200 mg/kg", "value": -34, "unit": "%"},
      {"measurement": "Kunkel phenol test % variation referred to the control", "setting": "[2]; clofibrate 200 mg/kg", "value": -29, "unit": "%"},
      {"measurement": "Cholesterol % variation", "setting": "[3]; [7]", "value": -15, "unit": "%"},
      {"measurement": "Kunkel phenol % variation", "setting": "[3]; [7]", "value": -23, "unit": "%"},
      {"measurement": "Activity in the Triton test (in words)", "setting": "[3]; Triton WR 1339", "value": "inactive"}
    ]},
    {"smiles": "CC(C)(Oc1ccc(Cl)cc1)C(=O)OCCNC(=O)c1cccnc1", "note": "[F 1393, Hydrochloride of N-nicotinoyl, O-(p-chloro phenoxy) isobutanoyl ethanol amine]", "values": [
      {"measurement": "LD50 at 96 h", "setting": "[4]; po, by mouth", "value": 3100, "unit": "mg/kg"},
      {"measurement": "LD50 at 96 h", "setting": "[4]; ip", "value": 560, "unit": "mg/kg"},
      {"measurement": "Cholesterol % variation referred to the control", "setting": "[1]; [8]", "value": -32, "unit": "%"},
      {"measurement": "Triglycerides % variation referred to the control", "setting": "[1]; [8]", "value": -43, "unit": "%"},
      {"measurement": "Triglycerides % variation referred to the control", "setting": "[1]; acute dose study, 50 mg/kg, HS (highly significant)", "value": -26, "unit": "%"},
      {"measurement": "Cholesterol % variation referred to the control", "setting": "[1]; acute dose study, 50 mg/kg, NS (not significant)", "value": -10, "unit": "%"},
      {"measurement": "Cholesterol % variation referred to the control", "setting": "[1]; acute dose study, 100 mg/kg", "value": -0, "unit": "%"},
      {"measurement": "Triglycerides % variation referred to the control", "setting": "[1]; acute dose study, 100 mg/kg, HS (highly significant)", "value": -29, "unit": "%"},
      {"measurement": "Cholesterol % variation referred to the control", "setting": "[1]; acute dose study, 200 mg/kg, HS (highly significant)", "value": -22, "unit": "%"},
      {"measurement": "Triglycerides % variation referred to the control", "setting": "[1]; acute dose study, 200 mg/kg, S", "value": -19, "unit": "%"},
      {"measurement": "Cholesterol % variation referred to the control", "setting": "[1]; [9]", "value": -35, "unit": "%"},
      {"measurement": "Triglycerides % variation referred to the control", "setting": "[1]; [9]", "value": -43, "unit": "%"},
      {"measurement": "Cholesterol % variation referred to the control", "setting": "[2]; F 1393 340 mg/kg", "value": -44, "unit": "%"},
      {"measurement": "Kunkel phenol test % variation referred to the control", "setting": "[2]; F 1393 340 mg/kg", "value": -52, "unit": "%"},
      {"measurement": "Cholesterol % variation", "setting": "[3]; F 1393 340 mg/kg IP, HS (highly significant)", "value": -68, "unit": "%"},
      {"measurement": "Kunkel phenol % variation", "setting": "[3]; F 1393 340 mg/kg IP, S", "value": -89, "unit": "%"},
      {"measurement": "Solubility in N-methyl pyrrolidone", "setting": "[5]; N-methyl pyrrolidone", "value": 16, "unit": "%"},
      {"measurement": "Solubility in ethanol", "setting": "[5]", "value": 3.5, "unit": "%"},
      {"measurement": "Solubility in propylene glycol", "setting": "[5]; propylene glycol", "value": 5, "unit": "%"},
      {"measurement": "solubility", "setting": "[5]; water", "value": 120, "unit": "mg/mL"}
    ]},
    {"smiles": "CC(C)(Oc1ccc(Cl)cc1)C(=O)OCCNC(=O)c1ccc[n+]([O-])c1", "note": "[F 1416, N-oxide of N-nicotinoyl, O-(parachloro phenoxy) isobutanoyl ethanol amine]", "values": [
      {"measurement": "LD50 at 96 h", "setting": "[4]; po, by mouth", "value": 2400, "unit": "mg/kg"},
      {"measurement": "LD50 at 96 h", "setting": "[4]; ip", "value": "≥ 1000", "unit": "mg/kg"},
      {"measurement": "Solubility in ethanol", "setting": "[5]", "value": 3, "unit": "%"},
      {"measurement": "Solubility in propylene alcohol", "setting": "[5]; propylene alcohol", "value": 1, "unit": "%"},
      {"measurement": "Solubility in water (in words)", "setting": "[5]; water", "value": "Insoluble"}
    ]},
    {"smiles": "O=C(O)c1cccnc1", "note": "[Nicotinic acid, nicotinic acid]", "values": [
      {"measurement": "Cholesterol % variation referred to the control", "setting": "[1]; [10]", "value": -25, "unit": "%"},
      {"measurement": "Triglycerides % variation referred to the control", "setting": "[1]; [10]", "value": -47, "unit": "%"},
      {"measurement": "Cholesterol % variation referred to the control", "setting": "[2]; nicotinic acid 100 mg/kg", "value": -22, "unit": "%"},
      {"measurement": "Cholesterol % variation", "setting": "[3]; [11]", "value": -67, "unit": "%"},
      {"measurement": "Kunkel phenol % variation", "setting": "[3]; [11]", "value": -75, "unit": "%"}
    ]}
  ]
}
